Reference: patent publication US10568840B2, “Self assembled gels for controlled delivery of encapsulated agents to cartilage” (The Brigham and Women's Hospital, Inc., priority 2016, dated 2020)

Key:
[1] = In vitro release of L-006235 from SP and SP-DOTAP hydrogel (dialysis, HPLC); type: physicochemical; settings: from hydrogel in PBS at 37° C.; in 7 days
Experimental: SP-DOTAP gel was assayed for its ability to retain the encapsulated Cathepsin-K inhibitor, L-006235, loaded at 10% (w/w). In vitro release of L-006235 from SP-only hydrogel and from SP-DOTAP hydrogel was evaluated in PBS at 37° C. Drug-loaded hydrogels (200 μL, 10 mg drug/mL) further suspended in PBS (800 μl) were placed in dialysis tubing (8-10 kD molecular weight cut-off, Spectrum Labs). The dialysis bags filled with hydrogel in the suspension medium were placed in a 40 mL sink medium (PBS), and incubated at 37° C. with a shaking speed of 150 rpm. At each time point, an aliquot (1 ml) from the sink medium was removed and replenished with the same volume of fresh PBS to ensure constant sink conditions. Aliquots were lyophilized and dissolved in 250 μL methanol, followed by high performance liquid chromatography (HPLC) analysis of the drug amount.

[2] = Log P of GRAS amphiphiles; type: physicochemical; settings: GRAS amphiphile alone
Source text: (log P is the partition coefficient of a molecule between an aqueous and lipophilic phases, usually octanol and water; commonly used as a measure of lipophilicity of a compound.)

Compound | cumulative release of L-006235 [1] | Log P ([2]; Table 1) | logP ([2]; aqueous and lipophilic phases, usually octanol and water, Table 1) | Log P ([2]; Table 2)
CN1CCN(c2nc(-c3ccc(C(=O)NC4(C(=O)NCC#N)CCCCC4)cc3)cs2)CC1 [L-006235] | less than 10% |  |  | 
triglycerol monostearate [TG18] |  | 3.899 |  | 3.899
CCCCCCCCCCCCCCCC(=O)OC[C@H](O)[C@H]1OC(=O)C(O)=C1O [AP, ascorbyl palmitate] |  |  | 4.62 | 

The next lines start with results.

cumulative release of L-006235 [1] | Log P ([2]; Table 1) | logP ([2]; aqueous and lipophilic phases, usually octanol and water, Table 1) | Compound | Log P ([2]; Table 2)
 | 1.416 |  | sucrose stearate [SS] | 
 | 0.64 |  | sucrose palmitate [SP] | 0.64
